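In this assay, cells in 96-well plates receive the compound at five concentrations for 48 hours. Endpoints are linearly interpolated between the surrounding concentrations. GI50 is the concentration that inhibits growth by half. TGI denotes the concentration required for complete inhibition of growth.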
Experiments:
Assay in all cases: inhibition of tumour cell growth, NCI panel, 48 h
[1] = system: T-47D breast
[2] = system: NCI-H226 lung
[3] = system: ACHN renal
[4] = system: UO-31 renal
[5] = system: SK-MEL-5 melanoma
[6] = system: MCF7 breast
[7] = system: A498 renal
[8] = system: 786-0 renal

SMILES	TGI [1]	TGI [2]	TGI [3]	TGI [4]	TGI [5]	TGI [6]	TGI [7]	TGI [8]	GI50 [1]	GI50 [2]	GI50 [3]	GI50 [4]	GI50 [5]	GI50 [6]	GI50 [7]	GI50 [8]
CC(=O)OC12c3ccccc3-c3ccccc3C1C(C(=O)O)C2C(=O)O (stereo unspecified)	> 10 µM	> 10 µM	> 10 µM	> 10 µM	> 10 µM	> 10 µM	> 10 µM	> 10 µM								
Cn1nc(C(F)(F)F)c(-c2cc(C(F)(F)F)cc(C(F)(F)F)c2)c1-c1ccc(OCc2ccc(Cl)cc2)cc1O	8.4 µM	5.67 µM	10 µM	4.28 µM	3.11 µM	10.4 µM	5.13 µM	3.28 µM	1.54 µM	2.1 µM	2.54 µM	1.89 µM	1.45 µM	2.23 µM	1.31 µM	1.63 µM
C[C@H]1CNC(=O)c2cnn3ccc(nc23)N[C@H](C)c2cc(F)ccc2O1	> 93.5 µM	3.83 µM	4.36 µM	3.56 µM	32.3 µM	> 100 µM	0.886 µM	2.11 µM	1.6 µM	1.03 µM	0.558 µM	1.21 µM	8.91 µM	0.381 µM	0.216 µM	0.495 µM
NC(N)=NC(N)=NCCCc1ccco1	319 µM	351 µM	> 500 µM	195 µM	> 500 µM	> 500 µM	> 500 µM	265 µM	71.7 µM	98.3 µM	> 500 µM	65.2 µM	> 500 µM	334 µM	> 500 µM	83.5 µM
O=C(c1ccco1)c1c(C(F)(F)F)n([O-])c2cc(C(F)(F)F)ccc2[n+]1=O	1.47 µM	3.58 µM	0.748 µM	1.02 µM	1.7 µM	1.95 µM	3.28 µM	0.998 µM	0.355 µM	1.77 µM	0.338 µM	0.517 µM	0.683 µM	0.445 µM	1.53 µM	0.479 µM
CC(C)=CC(=O)N[C@H]1CC[C@]2(C)C3CC[C@]4(C)C(C(C)N(C)C)=CCC4C3CCC2[C@H]1O (stereo partly specified)	9.59 µM	25.7 µM	21.3 µM	4.51 µM	2.95 µM	13.6 µM	16.6 µM	9.23 µM	2.58 µM	8.49 µM	7.95 µM	1.88 µM	1.48 µM	3.06 µM	3.82 µM	2.85 µM
C[C@]12CC[C@H]3[C@@H](CC4SC(N)=NC45C/C(=N/NC(N)=O)CC[C@]35C)[C@@H]1CCC2=O (stereo partly specified)	3.8 µM	4.91 µM	3.19 µM	2.88 µM	2.97 µM	3.14 µM	6.83 µM	2.82 µM	1.86 µM	2.09 µM	1.8 µM	1.52 µM	1.57 µM	1.52 µM	2.1 µM	1.39 µM
O=C1C(=O)c2ccccc2C(O)=C1CCCc1ccc(C2CCCCC2)cc1	35.7 µM	27.6 µM	> 100 µM	23.2 µM	13.9 µM	34.2 µM	20.9 µM	43.5 µM	3.2 µM	5.42 µM	5.15 µM	5 µM	1.52 µM	4.17 µM	2.35 µM	3.73 µM
COC(=O)C(=O)C(C(=O)C(=O)Nc1ccccc1OC)c1nc2ccc([N+](=O)[O-])cc2[nH]c1=O (stereo unspecified)	> 100 µM	> 100 µM	> 100 µM	> 100 µM	> 100 µM	> 100 µM	> 100 µM	> 100 µM								
COC(=O)c1c2c(c(C)[n+]([O-])c1C)C(=O)C=C(NCc1cccc(Cl)c1)C2=O	1.71 µM	3.55 µM	2.04 µM	2.35 µM	0.316 µM	0.766 µM	2.46 µM	3.64 µM	0.187 µM	1.41 µM	0.661 µM	1.09 µM	0.167 µM	0.238 µM	1.21 µM	1.44 µM
O=C(Nc1ccc(F)cc1)Nc1ccc(Br)c(C(F)(F)F)c1	7.4 µM	11.1 µM	7.64 µM	10.6 µM	3.11 µM	10.3 µM	5.15 µM	8.17 µM	1.62 µM	2.73 µM	2.09 µM	2.35 µM	1.67 µM	2.29 µM	1.92 µM	2.42 µM
C=C1SC(=Nc2ccccc2Cl)N(C(=O)c2sc3ccccc3c2Cl)C12CCCCC2	> 100 µM	> 100 µM	> 100 µM	> 100 µM	> 100 µM	> 100 µM	74.6 µM	> 100 µM	3.35 µM	40 µM	4.89 µM	2.33 µM	8.2 µM	3.95 µM	2.77 µM	37.9 µM

— PubChem BioAssay (NCI)
